The test system of assay [1] is S. aureus ATCC 33591 (MRSA). As to the kind of experiment: Membrane depolarization DiSC3(5). It counts as cell-based, Staphylococcus aureus. The note with it: 2 × MIC, DiSC3(5) fluorescence. As to the method: (§1) Membrane depolarization activities of omiganan and retro-omiganan were evaluated using DiSC3(5) (3,3′-dipropylthiadicarbocyanine iodide; Thermo Fischer Scientific, Invitrogen™). The S. aureus ATCC 25923 and S. aureus ATCC 33591 strains were grown at 37 °C up to a mid-log phase (approx. 4 h) in the Mueller–Hinton broth. The cultures were centrifuged (3500 rpm, 7 min) and washed with a 20 mM glucose solution in HEPES buffer (5 mM, pH 7.2). The cells were resuspended in a 5 mM HEPES buffer supplemented with 20 mM glucose and 100 mM KCl (pH 7.2) to an OD 0.05 at 600 nm. The final concentration of the dye was 0.4 μM. The fluorescence was monitored at 20 °C (λex 620 nm and λem 678 nm) with Fluoroskan Ascent FL (Thermo Fisher Scientific) fluorometer. […] A HEPES solution with glucose was used as a negative control. The measurements were conducted twice to ensure the reproducibility.

Assay [2] concerns S. aureus ATCC 25923. The experiment in a line: Membrane depolarization DiSC3(5). Format: cell-based, Staphylococcus aureus. The note with it: 2 × MIC, DiSC3(5) fluorescence. As to the method: as §1
In assay [3] the test system is S. aureus ATCC 33591 (MRSA). The experiment in a line: microbe, parasite or virus in culture. In outline: (§2)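 MICs by CLSI broth microdilution in Mueller–Hinton broth (Ca²⁺ 50 mg/L added for daptomycin), read as lowest concentration inhibiting visible growth. MBEC on 24 h biofilms (0.5 × 10^7 CFU/mL, 37 °C) and MBIC with compound present during 24 h growth, both read by resazurin; triplicates.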

For assay [4], the system named is S. aureus ATCC 25923. As to the kind of experiment: microbe, parasite or virus in culture. Put shortly: as §2
[5] abbreviates: S. aureus ATCC 33591 (MRSA) biofilm treated under flow with Omiganan (half MBEC) for 24 h.
Setting [6] is: S. aureus ATCC 33591 (MRSA) biofilm treated under flow with Omiganan (half MBEC) for 48 h.
The mark [7] stands for this setting: S. aureus ATCC 33591 (MRSA) biofilm treated under flow with Omiganan (half MBEC) for 72 h.
[8] abbreviates: S. aureus ATCC 33591 (MRSA) biofilm treated under flow with Retro-Omiganan (half MBEC) for 24 h.
The mark [9] stands for this setting: S. aureus ATCC 33591 (MRSA) biofilm treated under flow with Retro-Omiganan (half MBEC) for 48 h.
Setting [10] is: S. aureus ATCC 33591 (MRSA) biofilm treated under flow with Retro-Omiganan (half MBEC) for 72 h.
The mark [11] stands for this setting: S. aureus ATCC 33591 (MRSA), time 0 h (baseline, before peptide exposure).

No end group written: not given here.

Regarding ILRWPWWPWRRK-NH2 [Omiganan], the membrane depolarization result (in assay [1]; with S. aureus ATCC 25923 [2]) was “cause depolarization of S. aureus membranes immediately after the addition” in each case. For the same substance, the MIC in assay [3] (setting [5]), in assay [3] (setting [6]), in assay [3] (setting [7]), in assay [3] (setting [8]), in assay [3] (setting [9]) and in assay [3] (setting [10]) was 8.0 µg/mL throughout. For the same substance, the MIC in assay [3] (setting [11]) was 16.0 µg/mL; against S. aureus ATCC 25923 [4] (ATCC 25923, 0 h) it was 16.0 µg/mL; against S. aureus ATCC 25923 [4] (ATCC 25923, 24 h), 8.0 µg/mL; in the assay on S. aureus ATCC 25923 [4] (ATCC 25923, 48 h) it was 8.0 µg/mL; in the assay on S. aureus ATCC 25923 [4] (ATCC 25923, 72 h), 8.0 µg/mL.

KRRWPWWPWRLI-NH2 [Retro-Omiganan]: the membrane depolarization entry (in assay [1]; in the assay on S. aureus ATCC 25923 [2]) was “cause depolarization of S. aureus membranes immediately after the addition” each time. Further, the MIC in assay [3] (setting [5]), in assay [3] (setting [6]), in assay [3] (setting [7]), in assay [3] (setting [8]), in assay [3] (setting [9]) and in assay [3] (setting [10]) was 8.0 µg/mL in each case. Besides, the MIC in assay [3] (setting [11]) amounted to 16.0 µg/mL; in the assay on S. aureus ATCC 25923 [4] (S. aureus 25923, time 0 h (baseline, before peptide exposure)), 8.0 µg/mL; with S. aureus ATCC 25923 [4] (S. aureus 25923 biofilm treated under flow with Omiganan (half MBEC) for 24 h), 8.0 µg/mL; in the assay on S. aureus ATCC 25923 [4] (S. aureus 25923 biofilm treated under flow with Omiganan (half MBEC) for 48 h) it was 8.0 µg/mL; in the assay on S. aureus ATCC 25923 [4] (S. aureus 25923 biofilm treated under flow with Omiganan (half MBEC) for 72 h), 8.0 µg/mL; in the assay with S. aureus ATCC 25923 [4] (S. aureus 25923 biofilm treated under flow with Retro-Omiganan (half MBEC) for 24 h) it was 8.0 µg/mL. Also, the MIC against S. aureus ATCC 25923 [4] (S. aureus 25923 biofilm treated under flow with Retro-Omiganan (half MBEC) for 48 h) and in the assay on S. aureus ATCC 25923 [4] (S. aureus 25923 biofilm treated under flow with Retro-Omiganan (half MBEC) for 72 h) was 8.0 µg/mL each time.

These data come from article PMC12055641, “The Study of Antistaphylococcal Potential of Omiganan and Retro-Omiganan Under Flow Conditions” (Probiotics and Antimicrobial Proteins, 2024).
